Source: PubChem BioAssay AID1159558 (GlaxoSmithKline (GSK), 2015)
The source made the active and inactive calls.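 The calls were made as follows: active = IC50 against T. cruzi CYP51 below a set limit; inactive = the rest.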

Target: Sterol 14-alpha demethylase (Trypanosoma cruzi (strain CL Brener)) (UniProt Q7Z1V1)
Assay: TcCYP51 inhibitors, dose response, mechanism study for T. cruzi antiparasitic project, biochemical, recombinant enzyme (AID 1159558);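 also: enzyme in bacterial membranes with Anopheles gambiae CYP reductase and cytochrome b5 partners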
Conditions: recombinant T. cruzi CYP51, BOMCC fluorescence

Sequence of Sterol 14-alpha demethylase (Trypanosoma cruzi (strain CL Brener)) (Q7Z1V1 whole entry, looked up): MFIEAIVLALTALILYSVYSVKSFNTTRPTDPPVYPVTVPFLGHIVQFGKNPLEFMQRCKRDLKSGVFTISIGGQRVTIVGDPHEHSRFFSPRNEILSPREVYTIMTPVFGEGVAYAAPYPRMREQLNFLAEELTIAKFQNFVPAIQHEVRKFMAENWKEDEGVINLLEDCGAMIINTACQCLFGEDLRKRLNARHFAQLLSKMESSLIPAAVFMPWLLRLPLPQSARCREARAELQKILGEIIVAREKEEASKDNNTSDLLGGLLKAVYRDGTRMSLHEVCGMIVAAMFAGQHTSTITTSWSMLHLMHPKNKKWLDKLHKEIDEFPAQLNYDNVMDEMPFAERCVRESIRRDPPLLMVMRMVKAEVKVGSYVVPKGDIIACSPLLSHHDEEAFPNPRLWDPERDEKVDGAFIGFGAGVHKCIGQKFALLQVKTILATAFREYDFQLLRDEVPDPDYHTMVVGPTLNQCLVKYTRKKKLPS

Row | Structure (SMILES) | IC50
1 | CN(C)c1ccc(N)cc1CN(CC1CCCO1)S(C)(=O)=O (configuration not stated) | > 100 µM (inactive)
2 | Cn1nccc1NC(=O)Cn1ccc(-c2ccncc2)n1 | 6.3 µM
3 | O=C(Nc1cccc(Cl)c1)N1CCCCC1c1cccnc1 (configuration not stated) | 0.02 µM
4 | CC(C)(C)Nc1nc(Nc2ccc3c(c2)CS(=O)(=O)C3)nc2[nH]ccc12 | 25 µM
5 | CC(=O)Nc1ccc(-c2cnc(N)c(-c3nc4ccc(F)cc4[nH]3)c2)cc1 | 63 µM
6 | Cc1c(C(=O)NCCCCn2ccnc2)oc2c(C)cccc12 | 0.1 µM
7 | CN(C)S(=O)(=O)c1ccc(Cl)c(C(=O)Nc2nc(-c3ccccn3)cs2)c1 | 32 µM
8 | Cn1c(CC(=O)NNC(=O)c2ccc3ccccc3n2)nc2ccccc21 | 32 µM
9 | O=C(c1ccccc1)N1CCC(C(=O)N2CCC(Oc3ccccc3Cl)CC2)CC1 | 20 µM
10 | NCc1csc(Nc2cc(Oc3ccccc3)ncn2)n1 | 0.32 µM
11 | O=C(CSc1nnc2ccc(-c3ccc(F)cc3)nn12)N1CCCCC1 | > 100 µM (inactive)
12 | NC(=O)c1cc(NC(=O)c2ccccc2COc2ccccc2)ccc1Cl | 79 µM
13 | OC[C@@H](Nc1nccc(-c2c(-c3ccc(F)cc3)ncn2C2CCNCC2)n1)c1ccccc1 | 25 µM
14 | CC(C)(C)Nc1nc(-c2ccccn2)nc2ccccc12 | > 100 µM (inactive)
15 | CC(C)(C)CC(=O)NCc1noc(COc2ccccc2)n1 | 50 µM
16 | N#Cc1ccc(C(=O)Nc2cccc(-c3cccc(CN4CCC(O)CC4)c3)c2)cc1 | 25 µM
17 | Cc1ncsc1CNc1cnc(-c2ccc3c(c2)OCCO3)c(-c2cnn(C)c2)c1 | 7.9 µM
18 | O=C(NC(CO)c1ccc(F)cc1)c1ccc(-c2c[nH]c3ncccc23)s1 (configuration not stated) | 1.3 µM
19 | CC(C)(C)C(=O)Nc1cc(C2CC2)nn1-c1nc2c(c(=O)[nH]1)CCCC2 | > 100 µM (inactive)
20 | O=C(c1cccc(Cl)c1Cl)N1CCn2c1nc(-c1ccncc1)cc2=O | 0.063 µM
21 | COc1cccc(NS(=O)(=O)c2ccc3[nH]cc(C(=O)NCCC(C)C)c(=O)c3c2)c1 | 6.3 µM
22 | Cc1cc(NC(=O)C2CCCCC2)n(-c2nc3c(c(=O)[nH]2)CCC3)n1 | > 100 µM (inactive)
23 | Cc1cn[nH]c1C1CCCN(Cc2nc3ccccc3n2C)C1 (configuration not stated) | 1.3 µM
24 | O=C(NC(c1ccc(Cl)cc1)c1cnccn1)C1CCN(C(=O)Nc2cccc(C(F)(F)F)c2)CC1 (configuration not stated) | 0.13 µM
25 | NS(=O)(=O)c1ccc(Nc2ncc3cccc(OC4CCNCC4)c3n2)cc1 | > 100 µM (inactive)
26 | COc1cc(Nc2nccc(Nc3onc(C)c3C)n2)cc(S(=O)(=O)C2CCOCC2)c1 | 7.9 µM

Row | Structure (SMILES) | IC50
27 | CC(C)Nc1nc(Cl)nc2ccccc12 | > 100 µM (inactive)
28 | Cc1ccc(NC(=O)c2ccc(Cl)c(NC(=O)c3ccc([N+](=O)[O-])cc3)c2)cc1 | > 100 µM (inactive)
29 | Cn1nc([N+](=O)[O-])nc1N1CCCCC1 | > 100 µM (inactive)
30 | O=C(COc1nn(-c2ccccc2)c2ncccc12)NCc1ccccc1 | 6.3 µM
31 | O=C1CCCCCC1(Cc1cnc[nH]1)c1ccc(Cl)cc1Cl (configuration not stated) | 0.1 µM
32 | NC(=O)c1ccc(-c2cccc(OCCN3CCN(C4CCCCC4)CC3)c2)cc1 | 40 µM
33 | COc1ccc2nccc(NC(=O)C3(OC)CCN(CC(O)c4ccc5c(c4)OCCO5)CC3)c2n1 (configuration not stated) | 1 µM
34 | CC(C)Nc1nccc(-c2c(-c3ccc(F)cc3)ncn2C2CCOCC2)n1 | > 100 µM (inactive)
35 | Cc1ccc(NC(=O)c2ccnc(N3CCCC3)c2)cc1-c1cc(C(N)=O)ccc1C | 4 µM
36 | N#Cc1cc([N+](=O)[O-])ccc1NC1CCCCCC1 | > 100 µM (inactive)
37 | NS(=O)(=O)c1ccc(Nc2nccc(-c3cnn4ncccc34)n2)cc1 | > 100 µM (inactive)
38 | O=C(COc1ccccc1)Nc1ccccc1C(=O)Nc1nccs1 | > 100 µM (inactive)
39 | Cc1ccccc1OCC(=O)N1CCCN(c2cccnn2)CC1 | 0.079 µM
40 | O=C1COC(c2ccccc2)(c2ccccc2)CN1C1CCN(Cc2ccc(-n3ccnc3)cc2)CC1 | 0.079 µM
41 | CS(=O)(=O)NC1CCC(Oc2cc3cnccc3cc2-c2ccsc2)CC1 (configuration not stated) | 0.025 µM
42 | Oc1c(-c2n[nH]c(Cc3ccc(F)cc3)n2)ncc2cccnc12 | > 100 µM (inactive)
43 | Cc1cccc(Nc2nc(-c3ccccn3)cs2)n1 | 20 µM
44 | COc1ccc(Cc2nc(-c3ncc4cccnc4c3O)n[nH]2)cc1OC | > 100 µM (inactive)
45 | CCc1cccc(CC)c1-n1c(SCC(=O)NC(=O)NCc2ccco2)nnc1-c1cccnc1 | 1 µM
46 | Clc1ccc(C(CC2CCCCO2)Cn2cncn2)c(Cl)c1 (configuration not stated) | 0.25 µM
47 | Cc1cc(C)nc(N2CCC(N(Cc3cccnc3)C(=O)c3cccc(C#N)c3)CC2)n1 | 0.13 µM
48 | O=C(Nc1ccc(C(F)(F)F)cc1)NC1(C(=O)NCc2ccco2)CCCCC1 | > 32 µM (inactive)
49 | COc1ccc(-c2ccc3nnc(-c4ccc(O)c(OC)c4)n3c2)cn1 | > 100 µM (inactive)
50 | CNc1cncc(C2CCCN2C(=O)Cc2coc3cc(C)ccc23)n1 (configuration not stated) | 0.025 µM
51 | N#Cc1ccc(Br)cc1[N+](=O)[O-] | 50 µM
52 | CCOc1ccc(NC(=O)C=Cc2ccc(CC)o2)cc1 | > 100 µM (inactive)
